# ChEMBL document CHEMBL4673234, “Design, synthesis, biological evaluation and molecular docking of new uracil analogs-1,2,4-oxadiazole hybrids as potential anticancer agents” (Bioorg Med Chem Lett, 2020)
# How the values were obtained:
# MDA-MB-231 = experiment: Cytotoxicity against human MDA-MB-231 cells assessed as reduction in cell viability incubated for 48 hrs; format: functional, cell-based; settings: MDA-MB-231, 48 h
# A549 [1] = experiment: Cytotoxicity against human A549 cells assessed as reduction in cell viability incubated for 48 hrs; format: functional, cell-based; settings: A549, 48 h
# MCF7 = experiment: Cytotoxicity against human MCF7 cells assessed as reduction in cell viability incubated for 48 hrs; format: functional, cell-based; settings: MCF7, 48 h
# HT-1080 [2] = experiment: Cytotoxicity against human HT-1080 cells assessed as reduction in cell viability incubated for 48 hrs; format: functional, cell-based; settings: HT-1080, 48 h
# A-375 [3] = experiment: Cytotoxicity against human A-375 cells assessed as cell viability at 10 uM incubated for 48 hrs (reference value: 100 %); format: functional; settings: read-out: Activity
# A-375 [4] = experiment: Cytotoxicity against human A-375 cells assessed as cell viability at 5 uM incubated for 48 hrs (reference value: 100 %); format: functional; settings: read-out: Activity
# HT-1080 [5] = experiment: Induction of cell cycle arrest in human HT-1080 cells assessed as G0/G1 phase at 5 uM incubated for 24 hrs by flow cytometry analysis (reference value: 63 %); format: functional
# A549 [6] = experiment: Induction of cell cycle arrest in human A549 cells assessed as G0/G1 phase at 5 uM incubated for 24 hrs by flow cytometry analysis (reference value: 73.5 %); format: functional
# A549 [7] = experiment: Induction of mitochondrial membrane potential dysfunction in human A549 cells assessed as depolarized dead cells at 5 uM incubated for 24 hrs by flow cytometry analysis (reference value: 0.39 %); format: functional
# A549 [8] = experiment: Induction of apoptosis in human A549 cells assessed as necrotic cells at 5 uM incubated for 24 hrs by AnnexinV-FITC/7-AAD double staining based analysis (reference value: 1.04 %); format: functional
# [9] = biological target: T1, Caspase-3/Caspase-7 (Homo sapiens) (UniProt P42574+P55210); experiment: Induction of caspase 3/7 proteolytic activity in human HT-1080 cells assessed as induction of apoptosis by measuring viable cells at 5 uM incubated for 24 hrs by flow cytometry analysis (reference value: 91.39 %); format: cell-based; settings: filed as activator
# T1 sequence (P42574 whole entry, looked up): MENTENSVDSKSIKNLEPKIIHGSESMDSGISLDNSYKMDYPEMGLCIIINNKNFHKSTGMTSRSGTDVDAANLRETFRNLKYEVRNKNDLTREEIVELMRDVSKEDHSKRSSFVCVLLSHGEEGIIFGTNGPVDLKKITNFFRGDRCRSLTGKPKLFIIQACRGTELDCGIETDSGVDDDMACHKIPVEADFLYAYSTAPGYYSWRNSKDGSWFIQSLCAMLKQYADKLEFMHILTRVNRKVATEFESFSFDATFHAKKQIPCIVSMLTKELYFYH
# T1 sequence (P55210 whole entry, looked up): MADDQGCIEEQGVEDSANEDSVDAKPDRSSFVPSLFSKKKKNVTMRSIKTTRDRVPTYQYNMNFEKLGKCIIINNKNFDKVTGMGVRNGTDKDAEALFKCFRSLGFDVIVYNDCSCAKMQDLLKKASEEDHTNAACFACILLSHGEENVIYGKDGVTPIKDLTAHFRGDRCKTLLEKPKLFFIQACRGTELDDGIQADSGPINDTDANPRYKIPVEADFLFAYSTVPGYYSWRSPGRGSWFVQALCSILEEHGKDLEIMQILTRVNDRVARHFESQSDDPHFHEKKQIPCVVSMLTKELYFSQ
# HT-1080 [10] = experiment: Induction of mitochondrial membrane potential dysfunction in human HT-1080 cells assessed as dead cells at 5 uM incubated for 24 hrs by flow cytometry analysis (reference value: 7.61 %); format: functional
# [11] = biological target: T1, Caspase-3/Caspase-7 (Homo sapiens); experiment: Induction of caspase 3/7 proteolytic activity in human A549 cells assessed as induction of apoptosis by measuring dead cells at 5 uM incubated for 24 hrs by flow cytometry analysis (reference value: 2.90 %); format: cell-based
# A549 [12] = experiment: Induction of apoptosis in human A549 cells assessed as late apoptotic cells at 5 uM incubated for 24 hrs by AnnexinV-FITC/7-AAD double staining based analysis (reference value: 3.01 %); format: functional
# A549 [13] = experiment: Induction of mitochondrial membrane potential dysfunction in human A549 cells assessed as dead cells at 5 uM incubated for 24 hrs by flow cytometry analysis (reference value: 9.92 %); format: functional
# A549 [14] = experiment: Induction of mitochondrial membrane potential dysfunction in human A549 cells assessed as viable cells at 5 uM incubated for 24 hrs by flow cytometry analysis (reference value: 86.64 to 88.54 %); format: functional; settings: read-out: Activity
# A549 [15] = experiment: Induction of cell cycle arrest in human A549 cells assessed as G2/M phase at 5 uM incubated for 24 hrs by flow cytometry analysis (reference value: 11.6 %); format: functional
# A549 [16] = experiment: Induction of apoptosis in human A549 cells at 5 uM incubated for 24 hrs by AnnexinV-FITC/7-AAD double staining based analysis relative to control; format: functional
# HT-1080 [17] = experiment: Induction of apoptosis in human HT-1080 cells at 5 uM incubated for 24 hrs by AnnexinV-FITC/7-AAD double staining based analysis (reference value: 1.34%); format: functional
# HT-1080 [18] = experiment: Induction of apoptosis in human HT-1080 cells assessed as early apoptotic cells at 5 uM incubated for 24 hrs by AnnexinV-FITC/7-AAD double staining based analysis relative to control; format: functional
# HT-1080 [19] = experiment: Induction of mitochondrial membrane potential dysfunction in human HT-1080 cells assessed as depolarized live cells at 5 uM incubated for 24 hrs by flow cytometry analysis (reference value: 2.28 %); format: functional
# A549 [20] = experiment: Induction of apoptosis in human A549 cells assessed as early apoptotic cells at 5 uM incubated for 24 hrs by AnnexinV-FITC/7-AAD double staining based analysis relative to control; format: functional
# A549 [21] = experiment: Induction of mitochondrial membrane potential dysfunction in human A549 cells assessed as depolarized live cells at 5 uM incubated for 24 hrs by flow cytometry analysis (reference value: 1.16 %); format: functional
# HT-1080 [22] = experiment: Induction of apoptosis in human HT-1080 cells assessed as late apoptotic cells at 5 uM incubated for 24 hrs by AnnexinV-FITC/7-AAD double staining based analysis (reference value: 0.12 %); format: functional
# [23] = biological target: T1, Caspase-3/Caspase-7 (Homo sapiens); experiment: Induction of caspase 3/7 proteolytic activity in human A549 cells assessed as induction of apoptosis by measuring apoptotic cells at 5 uM incubated for 24 hrs by flow cytometry analysis (reference value: 2.54 %); format: cell-based
# [24] = biological target: T1, Caspase-3/Caspase-7 (Homo sapiens); experiment: Induction of caspase 3/7 proteolytic activity in human A549 cells assessed as induction of apoptosis by measuring apoptotic/dead cells at 5 uM incubated for 24 hrs by flow cytometry analysis (reference value: 5.65 %); format: cell-based
# [25] = Induction of caspase 3/7 proteolytic activity in human HT-1080 cells assessed as induction of apoptosis at 5 uM incubated for 24 hrs by flow cytometry analysis relative to control; format: functional
# [26] = biological target: T1, Caspase-3/Caspase-7 (Homo sapiens); experiment: Induction of caspase 3/7 proteolytic activity in human A549 cells assessed as induction of apoptosis by measuring viable cells at 5 uM incubated for 24 hrs by flow cytometry analysis (reference value: 88.91 %); format: cell-based; settings: filed as activator
# [27] = biological target: T1, Caspase-3/Caspase-7 (Homo sapiens); experiment: Induction of caspase 3/7 proteolytic activity in human HT-1080 cells assessed as induction of apoptosis by measuring apoptotic/dead cells at 5 uM incubated for 24 hrs by flow cytometry analysis (reference value: 4.97 %); format: cell-based
# HT-1080 [28] = experiment: Induction of mitochondrial membrane potential dysfunction in human HT-1080 cells assessed as depolarized dead cells at 5 uM incubated for 24 hrs by flow cytometry analysis (reference value: 0.0 %); format: functional
# HT-1080 [29] = experiment: Induction of apoptosis in human HT-1080 cells at 5 uM incubated for 24 hrs by AnnexinV-FITC/7-AAD double staining based analysis relative to control; format: functional
# A549 [30] = experiment: Induction of apoptosis in human A549 cells at 5 uM incubated for 24 hrs by AnnexinV-FITC/7-AAD double staining based analysis (reference value: 9.08%); format: functional
# [31] = Induction of caspase 3/7 proteolytic activity in human A549 cells assessed as induction of apoptosis at 5 uM incubated for 24 hrs by flow cytometry analysis relative to control; format: functional
# HT-1080 [32] = experiment: Induction of cell cycle arrest in human HT-1080 cells assessed as S phase at 5 uM incubated for 24 hrs by flow cytometry analysis (reference value: 10.3 %); format: functional
# HT-1080 [33] = experiment: Induction of mitochondrial membrane potential dysfunction in human HT-1080 cells assessed as viable cells at 5 uM incubated for 24 hrs by flow cytometry analysis (reference value: 90.10 %); format: functional; settings: read-out: Activity
# HT-1080 [34] = experiment: Induction of apoptosis in human HT-1080 cells assessed as necrotic cells at 5 uM incubated for 24 hrs by AnnexinV-FITC/7-AAD double staining based analysis (reference value: 0.73 %); format: functional
# HT-1080 [35] = experiment: Induction of apoptosis in human HT-1080 cells assessed as viable cells at 5 uM incubated for 24 hrs by AnnexinV-FITC/7-AAD double staining based analysis (reference value: 97.92 %); format: functional; settings: read-out: Activity
# A549 [36] = experiment: Induction of apoptosis in human A549 cells assessed as early apoptotic cells at 5 uM incubated for 24 hrs by AnnexinV-FITC/7-AAD double staining based analysis (reference value: 6.07 %); format: functional
# A549 [37] = experiment: Induction of apoptosis in human A549 cells assessed as viable cells at 5 uM incubated for 24 hrs by AnnexinV-FITC/7-AAD double staining based analysis (reference value: 89.88 %); format: functional; settings: read-out: Activity
# [38] = biological target: T1, Caspase-3/Caspase-7 (Homo sapiens); experiment: Induction of caspase 3/7 proteolytic activity in human HT-1080 cells assessed as induction of apoptosis by measuring dead cells at 5 uM incubated for 24 hrs by flow cytometry analysis (reference value: 2.15 %); format: cell-based
# HT-1080 [39] = experiment: Induction of cell cycle arrest in human HT-1080 cells assessed as G2/M phase at 5 uM incubated for 24 hrs by flow cytometry analysis (reference value: 25.6 %); format: functional
# [40] = biological target: T1, Caspase-3/Caspase-7 (Homo sapiens); experiment: Induction of caspase 3/7 proteolytic activity in human HT-1080 cells assessed as induction of apoptosis by measuring apoptotic cells at 5 uM incubated for 24 hrs by flow cytometry analysis (reference value: 1.48 %); format: cell-based
# A549 [41] = experiment: Induction of cell cycle arrest in human A549 cells assessed as S phase at 5 uM incubated for 24 hrs by flow cytometry analysis (reference value: 9.6 %); format: functional
# HT-1080 [42] = experiment: Induction of apoptosis in human HT-1080 cells assessed as early apoptotic cells at 5 uM incubated for 24 hrs by AnnexinV-FITC/7-AAD double staining based analysis (reference value: 1.22 %); format: functional
structure (smiles),measurement,setting,value
COc1cccc2c1C(=O)c1c(O)c3c(c(O)c1C2=O)C[C@@](O)(C(=O)CO)C[C@@H]3O[C@H]1C[C@H](N)[C@H](O)[C@H](C)O1 [DOXORUBICIN],IC50,MDA-MB-231,3.41 µM
same,IC50,A549 [1],2.67 µM
same,IC50,MCF7,1.83 µM
same,IC50,HT-1080 [2],0.93 µM
O=c1[nH]c(=O)n(Cc2ccc(-c3noc(-c4ccccc4)n3)cc2)cc1F,viability at 10 µM,A-375 [3],30%
same,viability at 5 µM,A-375 [4],56%
O=c1[nH]c(=O)n(Cc2ccc(-c3noc(-c4ccc(-c5ccccc5)cc4)n3)cc2)cc1F,Activity,HT-1080 [5],59.9%
same,Activity,A549 [6],71.8%
same,Activity,A549 [7],0.63%
same,Activity,A549 [8],3.26%
same,IC50,MDA-MB-231,8.37 µM
same,Activity,[9],68.6%
same,Activity,HT-1080 [10],16.96%
same,Activity,[11],6.64%
same,Activity,A549 [12],14.72%
same,Activity,A549 [13],20.29%
same,viability at 5 µM,A549 [14],78%
same,Activity,A549 [15],11.5%
same,fold change (FC),A549 [16],3
same,Activity,HT-1080 [17],13.81%
same,fold change (FC),HT-1080 [18],3.5
same,IC50,A549 [1],3.12 µM
same,Activity,HT-1080 [19],3.61%
same,fold change (FC),A549 [20],1.5
same,Activity,A549 [21],1.03%
same,Activity,HT-1080 [22],9.56%
same,Activity,[23],3.25%
same,Activity,[24],25.8%
same,fold change (FC),[25],3
same,Activity,[26],64.3%
same,Activity,[27],19.4%
same,Activity,HT-1080 [28],0%
same,fold change (FC),HT-1080 [29],10
same,Activity,A549 [30],29.01%
same,IC50,MCF7,1.19 µM
same,fold change (FC),[31],3
same,Activity,HT-1080 [32],13.9%
same,viability at 5 µM,HT-1080 [33],78.7%
same,Activity,HT-1080 [34],1.49%
same,IC50,HT-1080 [2],0.88 µM
same,viability at 10 µM,A-375 [3],17%
same,viability at 5 µM,HT-1080 [35],84.7%
same,Activity,A549 [36],9.29%
same,viability at 5 µM,A549 [37],72.7%
same,Activity,[38],9.15%
same,Activity,HT-1080 [39],24.1%
same,Activity,[40],2.87%
same,Activity,A549 [41],12%
same,Activity,HT-1080 [42],4.25%
same,viability at 5 µM,A-375 [4],29%
O=c1ccn(Cc2ccc(-c3noc(-c4ccccc4)n3)cc2)c(=O)[nH]1,viability at 10 µM,A-375 [3],72%
same,viability at 5 µM,A-375 [4],76%
N/C(=N\O)c1ccc(Cn2ncc(=O)[nH]c2=O)cc1,viability at 10 µM,A-375 [3],94%
same,viability at 5 µM,A-375 [4],100%
COc1ccc(-c2nc(-c3ccc(Cn4ccc(=O)[nH]c4=O)cc3)no2)cc1,viability at 10 µM,A-375 [3],55%
same,viability at 5 µM,A-375 [4],59%
COc1ccc(-c2nc(-c3ccc(Cn4cc(F)c(=O)[nH]c4=O)cc3)no2)cc1,viability at 10 µM,A-375 [3],82%
same,viability at 5 µM,A-375 [4],50%
COc1ccc(-c2nc(-c3ccc(Cn4ncc(=O)[nH]c4=O)cc3)no2)cc1,viability at 10 µM,A-375 [3],55%
same,viability at 5 µM,A-375 [4],53%
O=c1cnn(Cc2ccc(-c3noc(-c4ccccc4)n3)cc2)c(=O)[nH]1,viability at 10 µM,A-375 [3],62%
same,viability at 5 µM,A-375 [4],100%
O=c1ccn(Cc2ccc(-c3noc(-c4ccc(-c5ccccc5)cc4)n3)cc2)c(=O)[nH]1,viability at 10 µM,A-375 [3],82%
same,viability at 5 µM,A-375 [4],85%
COc1ccc(-c2ccc(-c3nc(-c4ccc(Cn5ncc(=O)[nH]c5=O)cc4)no3)cc2)cc1,viability at 10 µM,A-375 [3],44%
same,viability at 5 µM,A-375 [4],76%
COc1ccc(-c2ccc(-c3nc(-c4ccc(Cn5cc(F)c(=O)[nH]c5=O)cc4)no3)cc2)cc1,IC50,MDA-MB-231,6.52 µM
same,IC50,A549 [1],4.02 µM
same,IC50,MCF7,0.89 µM
same,IC50,HT-1080 [2],0.98 µM
same,viability at 10 µM,A-375 [3],23%
same,viability at 5 µM,A-375 [4],29%
